What all share (assay type): cell-based
Data set [1] relates to Caco-2. The data set is described as follows: 3D Live/Dead assay with red vs green pixel analysis. Particulars: Caco-2, 3D, days 1, 4, 7; 1% w/v compound solution. On the procedure:
(§1) 3.0×10^6 HepG2 and Caco-2 cells were harvested from the tissue culture dishes, respectively. Following, they were centrifuged into cell pellets and the supernatant was discarded. For each cell line, HepG2 and Caco2, three conditions were prepared, i.e., a positive control (HyStem®) and two experimental conditions (HyStem®+C1.1 and HyStem®+C1.2). To prepare each condition, a 3.0×10^6 cell pellet was suspended in 500 μL 1% w/v Heprasil®, 500 μL 1% w/v Gelatin-S®, 125 μL of 2% w/v Extralink®, and 125 μL of 1% w/v C1.1/C1.2 (experimental conditions) or 125 μL of sterile, deionized water (positive control). The final cell density for each condition was […]. One 50 μL sample of each hydrogel condition at each condition was aliquoted into a 96-well for each time point (1, 4, and 7 days). […] At each time point media was aspirated from the wells and were subsequently incubated for 45-60 min with 200 μL of DPBS containing […] of calcein AM and […] of ethidium homodimer. Live cells fluoresce green due to the uptake and hydrolysis of calcein AM, and the nuclei of dead cells are labelled by the red-fluorescent ethidium homodimer.
(§2) A MATLAB (MathWorks®) script (supplemental information, S.3) was used to quantify red and green fluorescent signals generated by biochemical interactions between the ethidium homodimer and calcein AM, and cells, respectively.
(§3) Quantification of the red (dead) and green (viable) pixels was performed using an image processing script written on MATLAB (S.3). In this case, the live cell staining corresponds with the cytoplasm of the cell while the dead stain only highlights the nuclei of the cell therefore we use the ratio of red to green pixels as a quantification to show the relative cell-viability rather than report individual Live/Dead cell quantification over time.

Data set [2] relates to HepG2. The description is as above. The following applies: HepG2, 3D, days 1, 4, 7; 1% w/v compound solution. On the procedure:
as §1, §2, §3

In data set [3] the test system is Caco-2. The data set can be described thus: 2D 7-day MTS assay, cell proliferation on hydrogels. Particulars: Caco-2, 2D on hydrogel, days 1, 4, 7, 490 nm, FIG. 7. On the procedure:
(§4) At the proper confluency, the plates were washed with 10 mL of DPBS followed by an addition of 5 mL of trypsin and a 5 min incubation time at 37° C. Upon the conclusion of the incubation time light microscopy was used to determine that the cells had become detached. 5 mL of DMEM-10-1 was added to the plate and the trypsin/DMEM mixture was transferred into a 15 mL conical tube. A 1:4:5 ratio of cell mixture/DMEM-10-1/trypan blue was created in a 2.0 mL cryogenic vial. The mixture contained ˜1.2×10^5 cells-mL-1. The cells were pelleted down by centrifugation at 1500 rpm for 5 minutes and the trypsin/DMEM mixture was aspirated. The cells were resuspended in 10 mL of DMEM-10-1. For the MTS assay, 3.0×10^4 cells per well were seeded (In total 2.43×10^6 cells are needed for 81 wells). In each well (n=3 per time point) of a 96 well plate 16 μL of Heprasil® ([…], 1% w/v), 16 μL of Gelatin-S® (10 mg-mL-1, 1% w/v), 4 μL of Extralink® (5 mg 0.250 μL-1, 2% w/v), and 4 μL of modular catecholamine ([…], 3.6 mM, 1% w/v), C1.1 and C1.2, respectively were mixed by gently pipetting the solution up and down. The wells were then exposed to UV radiation (˜222 nm) for 3 seconds at distance of 1 cm to initiate crosslinking and form the hydrogel matrix. Approximately 30,000 cells were seeded per well; 200 μL of DMEM+10% FBS+1% pen-strep media at a density of 1.2×10^5 cells-mL-1 were aliquoted into each well, Caco-2 and HepG2 cell lines, respectively. A total of 27 wells per time point (3 per condition-positive control, catecholamine (C1.1), and catecholamide (C1.2) for each cell line, Caco-2 and HepG2. For the 3D cell cultural technique and amount of cells used in the live/dead assay refer to the Live/Dead Assay section.
(§5) The MTS assay is widely-used as a nonradioactive quantification of cellular proliferation, viability, and cytotoxicity.28 The MTS assay based on the reduction of MTS tetrazolium compound by viable cells to generate a colored formazan product that is soluble in cell culture media. This conversion is thought to be carried out by NAD(P)H-dependent dehydrogenase enzymes in metabolically active cells. MTS assays were performed using a CellTiter 96® AQueous One Solution Cell Proliferation Assay (G3582, Promega) at days 1, 4, 7. […] At the conclusion of the 45-minute incubation period a Molecular Device SpectraMax M5 plate reader was used to determine the optical density of each well monitored at 490 nm. […] Reported uncertainties were calculated using the standard deviations between the normalized OD values for n=3 runs of each condition.
(§6) In addition to Live/Dead assays, MTS assays were used to quantify the proliferation of cells. In this case, the ability for cells to proliferate in 2D when seeded on the hydrogels was assessed.

The test system of data set [4] is HepG2. The description is as above. The following applies: HepG2, 2D on hydrogel, days 1, 4, 7, 490 nm, FIG. 7. On the procedure:
as §4, §5, §6

On to `C#CCNCc1ccc(O)c(O)c1` [Compound C1.1], for which the “biocompatibility / cell viability in hydrogel (Live/Dead)” value in data set [1] and in data set [2] was “only a slightly depressed biocompatibility” each time. In addition, the “cell proliferation, normalized optical density (MTS) compared to control” value in data set [3] and in data set [4] was “higher” each time.

As to `C#CCNC(=O)Cc1ccc(O)c(O)c1` [Compound C1.2], the “biocompatibility / cell viability in hydrogel (Live/Dead)” value in data set [1] and in data set [2] was “only a slightly depressed biocompatibility” in each case. Besides, the “cell proliferation, normalized optical density (MTS) compared to control” value in data set [3] and in data set [4] was “higher” throughout.

The record behind these values is patent US11286231B2, “Hydrogen-bonding compounds, compositions comprising the same, and methods of preparing and using the same” (Wake Forest University Health Sciences, priority 2016, dated 2022).
